The results in this text go back to patent publication US5225571A, “Substituted dihydroxy-bis-[5-hydroxy-2(5H)-furanone-4-yl]-alkanes as anti-inflammatory agents” (Allergan, Inc., priority 1991, dated 1993).

In this assay the target is bee venom phospholipase A2 (Apis mellifera, UniProt P00630). The experiment in a line: biochemical. The class given is biochemical. Particulars: read-out: 50% inhibition (IC50) of bee venom phospholipase A2.

Like-named read-outs stand apart in the source and are kept apart here. Where only a bound is given, the exact number is not on record here.

bee venom phospholipase A2, sequence (P00630 34-167 limits assumed): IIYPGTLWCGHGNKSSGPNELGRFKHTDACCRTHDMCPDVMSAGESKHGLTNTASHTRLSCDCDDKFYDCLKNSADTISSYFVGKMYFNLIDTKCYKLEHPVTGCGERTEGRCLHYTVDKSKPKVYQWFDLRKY

In the case of `CC(=O)OC(CCCCCCCCCCCCC(OC(C)=O)C1=CC(=O)OC1O)C1=CC(=O)OC1O` (stereo not shown) [Compound 1, 1,14-Diacetoxy-1,14-bis[5-hydroxy-2(5H)-4-furanoyl]tetradecane], the IC50 (pH 7.4) came to 10 nM. Take `O=C1C=C(C(CCCCCCCCCCC(OC(=O)Nc2ccccc2)C2=CC(=O)OC2O)OC(=O)Nc2ccccc2)C(O)O1` (stereo not shown) [Compound 2, 1,12-Di(N-phenylcarbamoyl)-1,12-bis[5-hydroxy-2(5H)-furano-4-yl] dodecane]: the IC50 (pH 7.4) is 30 nM. As for `CC(C)(C)C(=O)OC(CCCCCCCCCCCCC(OC(=O)C(C)(C)C)C1=CC(=O)OC1O)C1=CC(=O)OC1O` (stereo not shown) [Compound 3, 1,14-Di(tert-butanoyloxy)-1,14-bis[5-hydroxy-2(5H)-furano-4-yl]tetradecane], for the setting “pH 7.4”, the IC50 was determined as 20 nM.

On to `CC(C)(C)C(=O)OC(CCCCCCCCCCCCC(OC(=O)C(C)(C)C)C1=CC(=O)OC1OC(=O)Nc1ccccc1)C1=CC(=O)OC1OC(=O)Nc1ccccc1` (stereo not shown) [Compound 4, 1,14-Di-(tert-butanoyloxy)-1,14-bis[5-(N-phenylcarbamoyl)-2(5H)-furano-4-yl]-tetradecane], for which the half-maximal inhibitory concentration (IC50) is greater than 1000 nM.
